Measured values: patent US8642640B2, “1-phenylpyrrole derivatives” (Exelixis, Inc., priority 2008, dated 2014)

What was measured:
[1] = target: T1, human mineralocorticoid receptor (hMR) (Homo sapiens, UniProt P08235); experiment: GAL4-hMR-LBD luciferase reporter assay in HEK293 cells with 1 nM aldosterone (Test Example 1); assay type: cell-based; details: for Emax: HEK293, read-out: Imax; for IC50: concentration showing Imax/2, HEK293, GAL4-hMR-LBD, 1 nM aldosterone, overnight, read-out: ICmax50;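 on Imax: 0% is DMSO-only control and 100% is 1 nM aldosterone alone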
T1 construct: expressed in transfected cells; host or cells: HEK293
T1 sequence (P08235 726-964 limits assumed): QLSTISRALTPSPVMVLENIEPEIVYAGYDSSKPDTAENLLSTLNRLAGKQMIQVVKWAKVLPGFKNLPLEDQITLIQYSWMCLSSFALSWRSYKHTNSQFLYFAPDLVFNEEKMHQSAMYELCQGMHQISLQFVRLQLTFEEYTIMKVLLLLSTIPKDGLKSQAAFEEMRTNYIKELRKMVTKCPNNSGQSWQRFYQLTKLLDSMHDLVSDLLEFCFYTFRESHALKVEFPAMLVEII
Method: A plasmid pM-hMR-LBD expressing GAL4-hMR receptor, which has a ligand binding domain (LBD, corresponding to approximately 308 amino acids at the carboxy terminus) of human mineralocorticoid receptor (hMR, NM_000901) bonded to a DNA binding domain of yeast transcription factor GAL4 (corresponding to 147 amino acids at the amino terminus), was prepared. Reporter assay was conducted by using a reporter plasmid (such as plasmid pFR-Luc of […] CLONING SYSTEMS) including a luciferase gene, having a sequence (UAS sequence) which binds to the DNA binding domain of GAL4.
The plasmid pM-hMR-LBD and the reporter plasmid as obtained above were gene transferred into renal cell line HEK293 of human fetus by lipofection. On the next day, cells were collected by trypsin treatment, and dispensed with DMEM culture medium containing 5% of FBS treated by activated charcoal, to a white 96-well plate (Costar) with the amount of 95 microliter per well.
The test compounds were used as dissolved in dimethyl sulfoxide at a predetermined concentration, and the test compounds suitably diluted with culture media were added to the cells on the white 96-well plate so that the final concentration becomes 0.1%. […] After the addition, cultivation was carried out overnight.
On the next day, the culture media was removed, and then luciferase substrate (Wako Pure Chemical Industries, Ltd.) was prepared in accordance with the attached document and were added to each well by 50 microliters. Stirring was conducted for approximately 30 minutes, and the amount of luminescence was measured for each well by using Analyst (Molecular Devices), to obtain luciferase activity. A graph which plots relative luciferase activity values, when the luciferase activity value of Control group 1 was taken as 0% and the luciferase activity value of Control group 2 was taken as 100%, for each of the amount of the test compound addition group was made.

[2] = Plasma concentration after intragastric administration to cynomolgus monkey (Test Example 2); assay type: in vivo; details: male cynomolgus monkey, 3 mg/kg intragastric in 0.5% MC, plasma, LC-MS/MS; for AUC, area under the plasma concentration versus time curve: noncompartment model; for Cmax: po, read-out: Cmax, maximum concentration
Method: Cynomolgus monkey (male) was used, and it was fasted from the day before administration of the test compound.
Administration samples were prepared by adding a 0.5% MC (methyl cellulose) solution to the Test Compound, so that the dose becomes 3 mg/2 mL/kg. Each of the administration samples was administered intragastrically to the cynomolgus monkey by using a tube. After the samples were administered, approximately 5 mL of 0.5% MC was administered. For each of the administration samples, a group of two cynomolgus monkeys was administered.
With respect to collection of blood, it was conducted by collecting approximately 0.5 mL of blood from crotch vein using a glass syringe treated with heparin, before administration, and 30 minutes, 1, 2, 4, 6, 8, 24 and 48 hours after administration. Blood was centrifuged (1,700×g, 15 min, 4° C.) to obtain plasma. Plasma was stored in a freezer (−20° C.) until pretreatment.
Preparation of standard solution and internal standard (IS) solution: Each of the Test Compounds was dissolved in DMSO (dimethyl sulfoxide) to prepare a solution of 10 mM each. Each of the compound solution was diluted with acetonitrile, and thus standard solution was prepared. Further, niflumic acid (Wako Pure Chemical Industries, Ltd.) was dissolved in DMSO at the concentration of 2 mM, followed by dilution with acetonitrile to prepare an IS solution of 2 μM.
Pretreatment of plasma samples: 20 μL of plasma sample was collected, and then 25 μL of purified water, 100 μL of acetonitrile, and 100 μL of methanol was added. For the preparation of a calibration curve, 25 μL of purified water, 20 μL of each of the standard solutions (acetonitrile solution), 80 μL of acetonitrile, and 100 μL of methanol were added to 20 μL of blank plasma. 40 μL of the acetonitrile solution of IS was added to all of the samples, and then the samples were stirred, filtered by suction using Captiva filter plate (Varian, Inc.), and then the filtrate was used as the sample for LC-MS/MS analysis.
Quantitative Determination of Test Compound: Concentration in plasma was analyzed by LC-MS/MS method for each Test Compound.
Analysis: Pharmacokinetic parameter was calculated from concentration of each of the drugs in plasma, by using WinNonlin Professional (Ver. 4.0.1, Pharsight Corporation). Here, Noncompartment model was used as the model for parameter calculation.

| SMILES | Emax [1] | IC50 [1] | AUC, area under the plasma concentration versus time curve [2] | Cmax [2] |
| --- | --- | --- | --- | --- |
| Cc1c(C(=O)Nc2ccc(S(C)(=O)=O)cc2)cc(C[C@H](C)O)n1-c1ccc(F)cc1Cl (single isomer, unassigned) [Example 40 - isomer A] | 91% | 9.6 nM | 15.11 µg·h/mL | 1300 ng/mL |
| Cc1c(C(=O)Nc2ccc(S(C)(=O)=O)cc2)cc(C[C@H](C)O)n1-c1ccc(Cl)cc1OC(F)(F)F (single isomer, unassigned) [Example 42 - isomer B] | 95% | 2.7 nM | 23.86 µg·h/mL | 1660 ng/mL |
| Cc1c(C(=O)Nc2ccc(S(C)(=O)=O)cc2)cc(C[C@H](C)O)n1-c1ccc(Cl)cc1Cl (single isomer, unassigned) [Example 43 - isomer A] | 123% | 5.5 nM | 14.82 µg·h/mL | 1140 ng/mL |
| Cc1c(C(=O)Nc2ccc(S(C)(=O)=O)cc2)cc(CCF)n1-c1ccc(F)cc1OC(F)F (single isomer, unassigned) [Example 54 - isomer A, 1-[2-(Difluoromethoxy)-4-fluorophenyl]-5-(2-fluoroethyl)-2-methyl-N-[4-(methylsulfonyl)phenyl]-1H-pyrrole-3-carboxamide] | 99% | 6.5 nM | 11.41 µg·h/mL | 970 ng/mL |

The next lines start with the values.

| Emax [1] | IC50 [1] | AUC, area under the plasma concentration versus time curve [2] | Cmax [2] | SMILES |
| --- | --- | --- | --- | --- |
| 98% | 12 nM | 16.92 µg·h/mL | 940 ng/mL | CCc1c(C(=O)Nc2ccc(S(C)(=O)=O)cc2)cc(C[C@H](C)O)n1-c1ccc(F)cc1Cl (single isomer, unassigned) [Example 44 - isomer B] |
| 124% | 11 nM | 10.94 µg·h/mL | 830 ng/mL | Cc1cc(Cl)ccc1-n1c(CCF)cc(C(=O)Nc2ccc(S(C)(=O)=O)cc2)c1C (single isomer, unassigned) [Example 51 - isomer A, 1-(4-Chloro-2-methylphenyl)-5-(2-fluoroethyl)-2-methyl-N-[4-(methylsulfonyl)phenyl]-1H-pyrrole-3-carboxamide] |
| 114% | 14 nM | 0.03 µg·h/mL | < 10 ng/mL | Cc1cc(C(=O)Nc2ccc(S(C)(=O)=O)cc2)c(C)n1-c1ccccc1C(F)(F)F [Reference compound A, 1-[2-(trifluoromethyl)phenyl]-2,5-dimethyl-N-[4-(methylsulfonyl)phenyl]-1H-pyrrole-3-carboxamide, reference compound] |
| 93% | 12 nM | 0.17 µg·h/mL | 10 ng/mL | Cc1cc(C(=O)Nc2ccc(S(C)(=O)=O)cc2)c(C)n1-c1ccc(F)cc1C(F)(F)F [Reference compound B, 1-[4-fluoro-2-(trifluoromethyl)phenyl]-2,5-dimethyl-N-[4-(methylsulfonyl)phenyl]-1H-pyrrole-3-carboxamide, reference compound] |
